Reference: publication PMC5618561 (International Journal of Molecular Sciences, 2017)
Where two headings read alike, the source gives them in different places.

Columns and labels:
[1] = test system: SWV/Finn mice; settings: cited from earlier work
[2] = test system: pyruvate oxidation of isolated rat liver mitochondria; experiment: ADP-stimulated pyruvate oxidation of isolated rat liver mitochondria (high-resolution respirometry); assay type: biochemical
[3] = test system: 2-oxoglutarate oxidation of isolated rat liver mitochondria; experiment: ADP-stimulated 2-oxoglutarate oxidation of rat liver mitochondria; assay type: biochemical; settings: 3 min preincubation with 1 mM ATP, 5 mM MgCl2, 10 mM 2-oxoglutarate, 1 mM ADP, read-out: Apparent IC50 of inhibition of 2-oxoglutarate oxidation
[4] = test system: glutamate oxidation of isolated rat liver mitochondria; experiment: ADP-stimulated glutamate (+ malate) oxidation of rat liver mitochondria; assay type: biochemical; settings: 3 min preincubation with 1 mM ATP, 5 mM MgCl2, 10 mM glutamate, 5 mM malate, 1 mM ADP, read-out: Apparent IC50 of inhibition of glutamate oxidation
[5] = target: T1, α-lipoamide dehydrogenase (Rattus norvegicus, UniProt Q6P6R2); experiment: α-lipoamide dehydrogenase activity in intact mitochondria (re-reduction of NAD(P)+ after α-lipoamide, NAD(P)H fluorescence); assay type: biochemical; settings: for IC50: read-out: Apparent IC50 of inhibition of α-lipoamide dehydrogenase; for inhibition of α-lipoamide dehydrogenase (in words): rat liver mitochondria, abstract summary
T1 construct: After 3 min incubation of rat liver mitochondria (0.3 mg protein/mL) in MTP medium; from tissue; host or cells: liver mitochondria of Wistar rat
T1 sequence (Q6P6R2 36-509): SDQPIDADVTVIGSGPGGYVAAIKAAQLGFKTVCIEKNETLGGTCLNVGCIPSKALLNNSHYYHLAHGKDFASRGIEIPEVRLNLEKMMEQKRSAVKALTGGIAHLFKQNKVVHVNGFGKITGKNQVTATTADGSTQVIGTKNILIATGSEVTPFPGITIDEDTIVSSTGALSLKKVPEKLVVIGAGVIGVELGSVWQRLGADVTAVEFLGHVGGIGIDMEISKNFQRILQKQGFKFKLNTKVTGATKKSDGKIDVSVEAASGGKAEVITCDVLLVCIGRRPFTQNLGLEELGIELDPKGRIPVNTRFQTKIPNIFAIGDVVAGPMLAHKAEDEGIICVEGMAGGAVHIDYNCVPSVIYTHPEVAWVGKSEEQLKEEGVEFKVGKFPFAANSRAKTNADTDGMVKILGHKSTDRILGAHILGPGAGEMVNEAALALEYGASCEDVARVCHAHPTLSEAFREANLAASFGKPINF

[6] = cited from earlier work
[7] = test system: pyruvate transport of rat liver mitochondria; experiment: pyruvate transport: pyruvate-dependent swelling of mitochondria in ammonium pyruvate; assay type: biochemical; settings: 1 mM compound; rat liver mitochondria in 0.1 M ammonium pyruvate
Experimental: (§1) (A) The plotted pyruvate dehydrogenase (PDH) activities are averages of three independent experiments; (B) Swelling of mitochondria in 0.1 M ammonium pyruvate buffer. One representative experiment (out of 3) is shown. […] Experimental conditions as described in Materials and Methods.
For pyruvate transport determinations, the mitochondrial suspension (0.6–0.7 mg protein) was placed into a 3 mL spectrophotometric cuvette, containing 5 mM MgCl2, 2 µM rotenone, 1.5 µg/mL antimycin, and 0.1 M ammonium pyruvate (obtained from ammonium hydroxide and pyruvic acid). When indicated, 1 mM cinnamate was added. Mitochondrial swelling was estimated at 30 °C using a spectrophotometer (Aminco DW 2000, SLM Instruments) at 546 nm.

[8] = patients with epilepsy; cited from earlier work
[9] = target: T2, pyruvate dehydrogenase (Rattus norvegicus, UniProt P26284+P49432); experiment: pyruvate dehydrogenase (PDH) activity of isolated rat liver mitochondria; assay type: biochemical; settings: preincubation with 10 mM VPA and 1 mM ATP; excess α-lipoamide dehydrogenase
T2 construct: the mitochondrial suspension (0.3 mg protein) was placed into a 0.5 mL spectrophotometric cuvette; from tissue; host or cells: liver mitochondria of Wistar rat, solubilised with 0.1% N-dodecyl-β-D-maltoside
T2 sequence (P26284 30-390): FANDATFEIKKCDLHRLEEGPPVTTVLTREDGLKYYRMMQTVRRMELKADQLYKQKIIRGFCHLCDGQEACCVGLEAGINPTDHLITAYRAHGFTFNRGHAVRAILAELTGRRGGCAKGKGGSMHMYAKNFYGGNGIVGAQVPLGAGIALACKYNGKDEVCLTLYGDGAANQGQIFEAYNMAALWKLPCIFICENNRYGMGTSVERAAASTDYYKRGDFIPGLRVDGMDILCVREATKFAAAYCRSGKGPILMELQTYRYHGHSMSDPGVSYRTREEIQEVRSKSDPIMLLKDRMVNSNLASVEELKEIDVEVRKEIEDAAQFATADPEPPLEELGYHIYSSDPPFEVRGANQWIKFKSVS
T2 sequence (P49432 31-359): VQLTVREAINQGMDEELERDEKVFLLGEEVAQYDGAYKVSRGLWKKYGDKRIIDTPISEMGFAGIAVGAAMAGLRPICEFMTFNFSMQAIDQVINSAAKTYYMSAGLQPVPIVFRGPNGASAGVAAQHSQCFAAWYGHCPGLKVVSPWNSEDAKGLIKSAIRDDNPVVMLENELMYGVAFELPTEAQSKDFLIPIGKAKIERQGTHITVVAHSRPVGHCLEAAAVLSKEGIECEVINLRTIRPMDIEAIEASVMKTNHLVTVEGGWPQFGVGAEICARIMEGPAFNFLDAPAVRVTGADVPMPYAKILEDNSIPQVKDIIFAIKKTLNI
Experimental: as §1
PDH activity in this suspension was determined according to Scislowski and Davis with the following modifications: the mitochondrial suspension (0.3 mg protein) was placed into a 0.5 mL spectrophotometric cuvette, containing 0.1 M potassium phosphate buffer (pH 7.4), 5 mM MgCl2, 3 mM NAD^+, 0.1 mM CoASH, 2 mM dithiothreitol, 0.1% N-dodecyl-β-D-maltoside, 0.4 mM thiamine pyrophosphate, 20 µg/mL diaphorase (Boehringer Mannheim, Mannheim, Germany), and 10 mM pyruvate. PDH activity was measured at 30 °C using a spectrophotometer (Aminco DW 2000, SLM Instruments, Urbana, IL, USA) with 340–380 nm dual wavelength photometry.

[10] = test system: epilepsy model; settings: racemate; dependent on the epilepsy model; cited from earlier work
[11] = test system: pilocarpine-induced status epilepticus (SE); settings: cited from earlier work; for protection against pilocarpine-induced status epilepticus: rat
[12] = SWV/Finn mice, strain highly susceptible to VPA-induced teratogenicity
[13] = isolated rat liver mitochondria, 3 min preincubation with drug, 1 mM ATP, 5 mM MgCl2, 10 mM pyruvate, 5 mM malate, ADP, read-out: Apparent IC50 of inhibition of pyruvate oxidation
[14] = isolated rat liver mitochondria, pyruvate-dependent reduction of NAD(P)+, estimated value

Compound	teratogenic effects [1, 12]	IC50 [2, 13]	IC50 [3]	IC50 [4]	inhibition of α-lipoamide dehydrogenase (in words) [5]	other results
CC[C@H](C(N)=O)[C@@H](C)CC [(2S,3S)-VCD]	did not show any significant teratogenic effects	–	–	–	–	–
CCCC(C(=O)O)C(C)CC (stereo not drawn) [SPA, sec-Butylpropylacetic acid]	–	50 µM	50 µM	2000 µM	Strong inhibition	IC50 ([5]; […], pyruvate-dependent reduction of NAD(P)+ after 75 µM α-lipoamide, preincubation with 1 mM ATP): 100 µM
CCCC(C(N)=O)C(C)CC (stereo not drawn) [SPD, sec-Butylpropylacetamide]	–	3000 µM	1000 µM	2000 µM	only small effects	IC50 ([5]; […], pyruvate-dependent reduction of NAD(P)+, estimated value): > 1000 µM
Valnoctic acid [VCA]	–	900 µM	200 µM	2000 µM	–	IC50 ([2]; both substrates summarised together, preincubated in the presence of ATP, read-out: IC50 of inhibition of pyruvate and 2-oxoglutarate oxidation rates of liver mitochondria): 200 to 900 µM; teratogenic effects ([1]; mouse, in vivo): did not show any significant teratogenic effects; IC50 [5]: 300 µM
CCCC(CCC)C(N)=O [VPD, Valpromide]	–	5000 µM	8000 µM	3000 µM	only small effects	biotransformation to the corresponding acid ([6]; humans): rapid transformation to VPA; IC50 [5, 14]: > 1000 µM
O=C(O)/C=C/c1ccccc1 [cinnamate]	–	–	–	–	–	effect on pyruvate-dependent swelling velocity (pyruvate transport) [7]: clearly inhibited
CCCC(CCC)C(=O)O [VPA, Valproic acid]	–	50 µM	50 µM	10000 µM	strongly inhibited	therapeutic blood levels [8]: 40 to 100 mg/L; effect on pyruvate-dependent swelling velocity (pyruvate transport) [7]: no effect; IC50 ([2]; isolated rat liver mitochondria, 3 min preincubation with drug, 1 mM ATP, 5 mM MgCl2, 10 mM pyruvate, 5 mM malate, ADP, listed as valproic acid, read-out: Apparent IC50 of inhibition of pyruvate oxidation): ~50 µM; effect on pyruvate dehydrogenation velocity (PDH activity) [9]: slight increase; pyruvate-dependent re-reduction of NAD(P)+ after α-lipoamide ([5]; 0.5 and 1 mM VPA): strongly inhibited; glutamate-dependent re-reduction of NAD(P)+ after α-lipoamide ([5]; glutamate as substrate): no effects; IC50 ([5]; isolated rat liver mitochondria, pyruvate-dependent reduction of NAD(P)+ after 75 µM α-lipoamide, preincubation with 1 mM ATP): 80 µM
CCC(C)C(CC)C(N)=O (stereo not drawn) [VCD, Valnoctamide]	did not show any significant teratogenic effects	–	–	–	only small effects	biotransformation to the corresponding acid ([6]; in vivo): low biotransformation; anticonvulsant activity: concentrations lower than VPA [10]: 2–16 times; block of pilocarpine-induced electrographic SE ([11]; 180 mg/kg): did block; protection against pilocarpine-induced status epilepticus ([11]; 65 mg/kg intraperitoneally at seizure onset): protected; protection against pilocarpine-induced status epilepticus ([11]; 80 mg/kg 30 min after seizure onset): protection was lost; IC50 [5, 14]: > 1000 µM
CC[C@H](C)[C@@H](CC)C(N)=O [(2R,3S)-VCD]	did not show any significant teratogenic effects	–	–	–	–	–
O=[As][O-].[Na+] [arsenite]	–	–	–	–	–	inhibition of DLDH activity [5]: complete inhibition
